In patent publication US10494360B2, “Inhibitors of indoleamine 2,3-dioxygenase” (NETHERLANDS TRANSLATIONAL RESEARCH CENTER B.V., priority 2016, dated 2019):
Where “and” joins values, the source holds several entries; their conditions need not be identical. Equal values may be shown once.

These compounds were tested against IDO1 (Homo sapiens, UniProt P14902) (assay: Biochemical IDO1 assay (NFK GreenScreen)). Details: recombinant full-length IDO1 25 nM, L-tryptophan 100 μM, NFK Green detection; read-out: IC50, inhibitory potency on IDO1.
Parameters: Recombinant full-length IDO1 (Seegers, N., et al.) and all other assay components were diluted in IDO1 reaction buffer; made in house
Procedure: Inhibition of IDO1 activity can be measured by determining the enzymatic conversion of L-tryptophan into N-formylkynurenine (NFK) in a reaction mixture containing IDO1 and test compound. The formation of NFK can be detected directly by, for instance, high-performance liquid chromatography (HPLC) methods, or by intrinsic fluorescence.
Compounds were serially diluted in dimethylsulfoxide (DMSO) and finally in IDO1 reaction buffer, consisting of 50 mM NaH2PO4, pH7.0, supplemented with 0.05% Tween-20 (cat. No. P7949; Sigma Aldrich) and 1% glycerol. Recombinant full-length IDO1 (Seegers, N., et al.) and all other assay components were diluted in IDO1 reaction buffer. […] Subsequently, 10 μl of 0.4 mM of the substrate L-tryptophan was added, i.e., the final concentration of L-tryptophan was 100 μM. The DMSO concentration in the assay was 0.3%. […] Incubation was continued for 60 min at room temperature. Then, 10 μl of NFK Green™ (NTRC, Oss, The Netherlands) was added, the plate was sealed, and the reaction was developed for 3 hours at 37° C. To determine the production of N-formyl kynurenine (NFK), the seal was removed and fluorescence was read on an EnVision multimode reader (Perkin Elmer, Waltham, Mass., USA). IC50 were calculated using XLfit™ software (ID Business Solutions, Ltd., Surrey, U.K.).

Chain of IDO1 (P14902 whole entry, species assumed): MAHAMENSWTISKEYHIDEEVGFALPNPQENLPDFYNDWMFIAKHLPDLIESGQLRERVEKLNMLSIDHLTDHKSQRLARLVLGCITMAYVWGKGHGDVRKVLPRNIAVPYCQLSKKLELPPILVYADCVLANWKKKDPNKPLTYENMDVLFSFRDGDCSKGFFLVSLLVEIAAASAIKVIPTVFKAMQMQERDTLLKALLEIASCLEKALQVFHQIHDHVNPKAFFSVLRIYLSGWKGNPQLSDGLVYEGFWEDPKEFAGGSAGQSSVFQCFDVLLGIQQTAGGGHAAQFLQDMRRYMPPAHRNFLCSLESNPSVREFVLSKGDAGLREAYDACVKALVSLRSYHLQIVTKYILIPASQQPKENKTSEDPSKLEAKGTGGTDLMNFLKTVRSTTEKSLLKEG

SMILES | IC50
O=C1CN(C(=O)c2cc(F)ccc2Cl)C(c2cccc(Br)c2)N1O (stereo not drawn) [Example 31, 2-(3-Bromophenyl)-1-(2-chloro-5-fluoro-benzoyl)-3-hydroxy-imidazolidin-4-one] | ≤ 5 µM and 1 to 5 µM
O=C1CN(C(=O)c2cccc(F)c2)C(c2cccc(Br)c2)N1O (stereo not drawn) [Example 36, 2-(3-Bromophenyl)-1-(3-fluorobenzoyl)-3-hydroxy-imidazolidin-4-one] | ≤ 1 µM
O=C1CN(C(=O)c2c(F)cccc2C(F)(F)F)C(c2cccc(Br)c2)N1O (stereo not drawn) [Example 37, 2-(3-Bromophenyl)-1-[2-fluoro-6-(trifluoromethyl)benzoyl]-3-hydroxy-imidazolidin-4-one] | ≤ 1 µM
O=C1CN(C(=O)c2ccc(C(F)(F)F)cc2F)C(c2cccc(Br)c2)N1O (stereo not drawn) [Example 38, 2-(3-Bromophenyl)-1-[2-fluoro-4-(trifluoromethyl)benzoyl]-3-hydroxy-imidazolidin-4-one] | ≤ 5 µM and 1 to 5 µM
O=C1CN(C(=O)c2ccc(F)cc2)C(c2ccc(F)c(Br)c2)N1O (stereo not drawn) [Example 40, 2-(3-Bromo-4-fluoro-phenyl)-1-(4-fluorobenzoyl)-3-hydroxy-imidazolidin-4-one] | ≤ 5 µM and 1 to 5 µM
COc1ccc(C(=O)N2CC(=O)N(O)C2c2ccc(F)c(Br)c2)cc1 (stereo not drawn) [Example 47, 2-(3-Bromo-4-fluoro-phenyl)-3-hydroxy-1-(4-methoxybenzoyl)imidazolidin-4-one] | ≤ 5 µM and 1 to 5 µM
O=C1CN(C(=O)c2c(Cl)cccc2Cl)C(c2ccc(F)c(Br)c2)N1O (stereo not drawn) [Example 48, 2-(3-Bromo-4-fluoro-phenyl)-1-(2,6-dichlorobenzoyl)-3-hydroxy-imidazolidin-4-one] | ≤ 5 µM and 1 to 5 µM
O=C1CN(C(=O)c2ccccc2)C(c2ccc(F)c(Cl)c2)N1O (stereo not drawn) [Example 50, 1-Benzoyl-2-(3-chloro-4-fluoro-phenyl)-3-hydroxy-imidazolidin-4-one] | ≤ 5 µM and 1 to 5 µM
O=C1CN(C(=O)c2ccccc2)C(c2cccc(Cl)c2)N1O (stereo not drawn) [Example 60, 1-Benzoyl-2-(3-chlorophenyl)-3-hydroxy-imidazolidin-4-one] | ≤ 5 µM and 1 to 5 µM
O=C1CN(C(=O)c2cccnc2Cl)C(c2cccc(Br)c2)N1O (stereo not drawn) [Example 61, 2-(3-Bromophenyl)-1-(2-chloropyridine-3-carbonyl)-3-hydroxy-imidazolidin-4-one] | ≤ 5 µM and 1 to 5 µM
O=C1CN(C(=O)c2c(F)cccc2F)C(c2ccnc(Br)c2)N1O (stereo not drawn) [Example 65, 2-(2-Bromo-4-pyridyl)-1-(2,6-difluorobenzoyl)-3-hydroxy-imidazolidin-4-one] | ≤ 5 µM and 1 to 5 µM
Cc1cccc(C2N(O)C(=O)CN2C(=O)c2c(F)cccc2F)c1 (stereo not drawn) [Example 69, 1-(2,6-Difluorobenzoyl)-3-hydroxy-2-(m-tolyl)imidazolidin-4-one] | ≤ 5 µM and 1 to 5 µM
O=C1CN(C(=O)c2c(F)cccc2F)C(c2cccc(Br)c2F)N1O (stereo not drawn) [Example 70, 2-(3-Bromo-2-fluoro-phenyl)-1-(2,6-difluorobenzoyl)-3-hydroxy-imidazolidin-4-one] | ≤ 5 µM and 1 to 5 µM
O=C1CN(C(=O)c2ccc(Cc3ccccc3)cc2)C(c2cccc(Br)c2)N1O (stereo not drawn) [Example 74, 1-(4-Benzylbenzoyl)-2-(3-bromophenyl)-3-hydroxy-imidazolidin-4-one] | ≤ 5 µM and 1 to 5 µM
O=C1CN(C(=O)c2c(F)ccc([N+](=O)[O-])c2F)C(c2cccc(Br)c2)N1O (stereo not drawn) [Example 75, 2-(3-Bromophenyl)-1-(2,6-difluoro-3-nitro-benzoyl)-3-hydroxy-imidazolidin-4-one] | ≤ 1 µM
CC(=O)Nc1ccc(F)c(C(=O)N2CC(=O)N(O)C2c2cccc(Br)c2)c1F (stereo not drawn) [Example 77, N-[3-[2-(3-bromophenyl)-3-hydroxy-4-oxo-imidazolidine-1-carbonyl]-2,4-difluoro-phenyl]acetamide] | ≤ 1 µM
CS(=O)(=O)Nc1ccc(F)c(C(=O)N2CC(=O)N(O)C2c2cccc(Br)c2)c1F (stereo not drawn) [Example 78, N-[3-[2-(3-bromophenyl)-3-hydroxy-4-oxo-imidazolidine-1-carbonyl]-2,4-difluoro-phenyl]methanesulfonamide] | ≤ 5 µM and 1 to 5 µM
Cc1cccc(F)c1C(=O)N1CC(=O)N(O)C1c1cccc(Br)c1 (stereo not drawn) [Example 88, 2-(3-Bromophenyl)-1-(2-fluoro-6-methyl-benzoyl)-3-hydroxy-imidazolidin-4-one] | ≤ 5 µM and 1 to 5 µM
O=C1CN(C(=O)c2ncccc2F)C(c2cccc(Br)c2)N1O (stereo not drawn) [Example 89, 2-(3-Bromophenyl)-1-(3-fluoropyridine-2-carbonyl)-3-hydroxy-imidazolidin-4-one] | ≤ 5 µM and 1 to 5 µM
O=C1CN(C(=O)c2cccs2)C(c2cccc(Br)c2)N1O (stereo not drawn) [Example 90, 2-(3-Bromophenyl)-3-hydroxy-1-(thiophene-2-carbonyl)imidazolidin-4-one] | ≤ 5 µM and 1 to 5 µM
O=C1CN(C(=O)c2ccc(Oc3ccccc3)cc2)C(c2cccc(Br)c2)N1O (stereo not drawn) [Example 91, 2-(3-Bromophenyl)-3-hydroxy-1-(4-phenoxybenzoyl)imidazolidin-4-one] | ≤ 5 µM and 1 to 5 µM
CC(C)c1cc(C(=O)N2CC(=O)N(O)C2c2cccc(Br)c2)no1 (stereo not drawn) [Example 96, 2-(3-Bromophenyl)-3-hydroxy-1-(5-isopropylisoxazole-3-carbonyl)imidazolidin-4-one] | ≤ 5 µM and 1 to 5 µM
CS(=O)(=O)c1ccc(-c2ccc(C(=O)N3CC(=O)N(O)C3c3cccc(Br)c3)cc2)cc1 (stereo not drawn) [Example 97, 2-(3-Bromophenyl)-3-hydroxy-1-[4-(4-methylsulfonylphenyl)benzoyl]imidazolidin-4-one] | ≤ 5 µM and 1 to 5 µM
CS(=O)(=O)N1CCC(C(=O)N2CC(=O)N(O)C2c2cccc(Br)c2)CC1 (stereo not drawn) [Example 100, 2-(3-Bromophenyl)-3-hydroxy-1-(1-methylsulfonylpiperidine-4-carbonyl)imidazolidin-4-one] | ≤ 5 µM and 1 to 5 µM
NS(=O)(=O)N1CCC(C(=O)N2CC(=O)N(O)C2c2cccc(Br)c2)CC1 (stereo not drawn) [Example 101, 4-[2-(3-Bromophenyl)-3-hydroxy-4-oxo-imidazolidine-1-carbonyl]piperidine-1-sulfonamide] | ≤ 5 µM and 1 to 5 µM
O=C1CN(C(=O)c2ccc3cn[nH]c3c2)C(c2cccc(Br)c2)N1O (stereo not drawn) [Example 103, 2-(3-Bromophenyl)-3-hydroxy-1-(1H-indazole-6-carbonyl)imidazolidin-4-one] | ≤ 5 µM and 1 to 5 µM
NCC#Cc1cc(F)c(C(=O)N2CC(=O)N(O)C2c2cccc(Br)c2)c(F)c1 (stereo not drawn) [Example 109, 1-[4-(3-Aminoprop-1-ynyl)-2,6-difluoro-benzoyl]-2-(3-bromophenyl)-3-hydroxy-imidazolidin-4-one] | ≤ 1 µM
CS(=O)(=O)NCC#Cc1cc(F)c(C(=O)N2CC(=O)N(O)C2c2cccc(Br)c2)c(F)c1 (stereo not drawn) [Example 110, N-[3-[4-[2-(3-bromophenyl)-3-hydroxy-4-oxo-imidazolidine-1-carbonyl]-3,5-difluoro-phenyl]prop-2-ynyl]methanesulfonamide] | ≤ 1 µM
NS(=O)(=O)NCC#Cc1cc(F)c(C(=O)N2CC(=O)N(O)C2c2cccc(Br)c2)c(F)c1 (stereo not drawn) [Example 111, 2-(3-Bromophenyl)-1-[2,6-difluoro-4-[3-(sulfamoylamino)prop-1-ynyl]benzoyl]-3-hydroxy-4-oxo-imidazolidine] | ≤ 1 µM
CC(C)(N)C#Cc1cc(F)c(C(=O)N2CC(=O)N(O)C2c2cccc(Br)c2)c(F)c1 (stereo not drawn) [Example 112, 1-[4-(3-Amino-3-methyl-but-1-ynyl)-2,6-difluoro-benzoyl]-2-(3-bromophenyl)-3-hydroxy-imidazolidin-4-one] | ≤ 5 µM and 1 to 5 µM
